In the supplement of paper PMC10307832:

Legend:
Assay in all cases: relative viability (nuclei count vs DMSO), 5 days (fraction); higher = more cells survive
201T = tested on: 201T
Summary of the method: (§1)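 Relative viability was taken as the ratio of nuclei in treated wells to nuclei in vehicle wells. Lung cancer cell lines in 1536-well plates received compounds by pin tool one day after seeding, either one drug alone or a fixed anchor-drug dose plus five library-drug doses (not always all listed) in √10 steps. Nuclei were counted on 4× images after 5 days of treatment, and values are medians of duplicate plates.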

A-427 = tested on: A-427
Summary of the method: as §1

COR-L23 = tested on: COR-L23
Summary of the method: as §1

H3255 = tested on: H3255
Summary of the method: as §1

LCLC-103H = tested on: LCLC-103H
Summary of the method: as §1

LCLC-97TM1 = tested on: LCLC-97TM1
Summary of the method: as §1

LK-2 = tested on: LK-2
Summary of the method: as §1

LU99A = tested on: LU99A
Summary of the method: as §1

NCI-H1563 = tested on: NCI-H1563
Summary of the method: as §1

NCI-H1650 = tested on: NCI-H1650
Summary of the method: as §1

NCI-H1793 = tested on: NCI-H1793
Summary of the method: as §1

NCI-H1944 = tested on: NCI-H1944
Summary of the method: as §1

NCI-H2347 = tested on: NCI-H2347
Summary of the method: as §1

NCI-H23 = tested on: NCI-H23
Summary of the method: as §1

NCI-H460 = tested on: NCI-H460
Summary of the method: as §1

NCI-H650 = tested on: NCI-H650
Summary of the method: as §1

NCI-H727 = tested on: NCI-H727
Summary of the method: as §1

NCI-H838 = tested on: NCI-H838
Summary of the method: as §1

PC-14 = tested on: PC-14
Summary of the method: as §1

PC-3 [JPC-3] = tested on: PC-3 [JPC-3]
Summary of the method: as §1

SW 1573 = tested on: SW 1573
Summary of the method: as §1

SW 900 = tested on: SW 900
Summary of the method: as §1

With CC1(C)CCC(c2ccc(Cl)cc2)=C(CN2CCN(c3ccc(C(=O)NS(=O)(=O)c4ccc(N[C@H](CCN5CCOCC5)CSc5ccccc5)c(S(=O)(=O)C(F)(F)F)c4)cc3)CC2)C1 [Navitoclax] + COc1cc2c(Oc3ccc(NC(=O)C4(C(=O)Nc5ccc(F)cc5)CC4)cc3F)ccnc2cc1OCCCN1CCOCC1 [Foretinib] (partner 0.25 µM) the relative viability (201T; first compound 0.005 µM) was 1.2, the relative viability (201T; first compound 0.01581 µM) was 1.43 and the relative viability (201T; first compound 0.05 µM) was 1.06. For the same compound, the relative viability (201T; first compound 0.1581 µM) was 1.12, the relative viability (201T; first compound 0.5 µM) was 1.03 and the relative viability (A-427; first compound 0.005 µM) was 0.988. It also gave a relative viability (A-427; first compound 0.01581 µM) of 1.07, a relative viability (A-427; first compound 0.05 µM) of 0.821 and a relative viability (A-427; first compound 0.1581 µM) of 1.04. For the same compound, the relative viability (A-427; first compound 0.5 µM) was 1.1, the relative viability (COR-L23; first compound 0.005 µM) was 0.957 and the relative viability (COR-L23; first compound 0.01581 µM) was 1.13. The relative viability (COR-L23; first compound 0.05 µM) was 1.02, the relative viability (COR-L23; first compound 0.1581 µM) was 0.938 and the relative viability (COR-L23; first compound 0.5 µM) was 0.947. It also gave a relative viability (H3255; first compound 0.005 µM) of 0.884, a relative viability (H3255; first compound 0.01581 µM) of 0.973 and a relative viability (H3255; first compound 0.05 µM) of 0.764. The relative viability (H3255; first compound 0.1581 µM) was 0.861, the relative viability (H3255; first compound 0.5 µM) was 0.787 and the relative viability (LCLC-103H; first compound 0.005 µM) was 0.676. The relative viability (LCLC-103H; first compound 0.01581 µM) was 0.934, the relative viability (LCLC-103H; first compound 0.05 µM) was 0.973 and the relative viability (LCLC-103H; first compound 0.1581 µM) was 0.832. For the same compound, the relative viability (LCLC-103H; first compound 0.5 µM) was 0.81, the relative viability (LCLC-97TM1; first compound 0.005 µM) was 0.972 and the relative viability (LCLC-97TM1; first compound 0.01581 µM) was 0.984. The relative viability (LCLC-97TM1; first compound 0.05 µM) was 0.831, the relative viability (LCLC-97TM1; first compound 0.1581 µM) was 0.985 and the relative viability (LCLC-97TM1; first compound 0.5 µM) was 0.921. It also gave a relative viability (LK-2; first compound 0.005 µM) of 1.22, a relative viability (LK-2; first compound 0.01581 µM) of 1.15 and a relative viability (LK-2; first compound 0.05 µM) of 0.645. The relative viability (LK-2; first compound 0.1581 µM) was 1.24, the relative viability (LK-2; first compound 0.5 µM) was 1.08 and the relative viability (LU99A; first compound 0.005 µM) was 0.796. It also gave a relative viability (LU99A; first compound 0.01581 µM) of 0.886, a relative viability (LU99A; first compound 0.05 µM) of 0.459 and a relative viability (LU99A; first compound 0.1581 µM) of 0.804. The relative viability (LU99A; first compound 0.5 µM) was 0.799, the relative viability (NCI-H1563; first compound 0.005 µM) was 0.948 and the relative viability (NCI-H1563; first compound 0.01581 µM) was 0.967. For the same compound, the relative viability (NCI-H1563; first compound 0.05 µM) was 0.856, the relative viability (NCI-H1563; first compound 0.1581 µM) was 0.987 and the relative viability (NCI-H1563; first compound 0.5 µM) was 1.03. The relative viability (NCI-H1650; first compound 0.005 µM) was 1.08, the relative viability (NCI-H1650; first compound 0.01581 µM) was 1.48 and the relative viability (NCI-H1650; first compound 0.05 µM) was 1.12. For the same compound, the relative viability (NCI-H1650; first compound 0.1581 µM) was 1.28, the relative viability (NCI-H1650; first compound 0.5 µM) was 0.953 and the relative viability (NCI-H1793; first compound 0.005 µM) was 0.616. For the same compound, the relative viability (NCI-H1793; first compound 0.01581 µM) was 0.711, the relative viability (NCI-H1793; first compound 0.1581 µM) was 0.608 and the relative viability (NCI-H1793; first compound 0.5 µM) was 0.622. For the same compound, the relative viability (NCI-H1944; first compound 0.005 µM) was 0.872, the relative viability (NCI-H1944; first compound 0.01581 µM) was 0.945 and the relative viability (NCI-H1944; first compound 0.05 µM) was 0.745. The relative viability (NCI-H1944; first compound 0.1581 µM) was 0.851, the relative viability (NCI-H1944; first compound 0.5 µM) was 0.741 and the relative viability (NCI-H2347; first compound 0.005 µM) was 1.42. For the same compound, the relative viability (NCI-H2347; first compound 0.05 µM) was 0.652, the relative viability (NCI-H2347; first compound 0.1581 µM) was 0.665 and the relative viability (NCI-H2347; first compound 0.5 µM) was 0.913. The relative viability (NCI-H23; first compound 0.005 µM) was 1.04, the relative viability (NCI-H23; first compound 0.01581 µM) was 1.1 and the relative viability (NCI-H23; first compound 0.05 µM) was 1.08. It also gave a relative viability (NCI-H23; first compound 0.1581 µM) of 0.768, a relative viability (NCI-H23; first compound 0.5 µM) of 0.882 and a relative viability (NCI-H460; first compound 0.005 µM) of 0.991. It also gave a relative viability (NCI-H460; first compound 0.01581 µM) of 1.02, a relative viability (NCI-H460; first compound 0.05 µM) of 0.713 and a relative viability (NCI-H460; first compound 0.1581 µM) of 1.01. It also gave a relative viability (NCI-H460; first compound 0.5 µM) of 0.941, a relative viability (NCI-H650; first compound 0.005 µM) of 1.05 and a relative viability (NCI-H650; first compound 0.01581 µM) of 1.15. For the same compound, the relative viability (NCI-H650; first compound 0.05 µM) was 1, the relative viability (NCI-H650; first compound 0.1581 µM) was 1.04 and the relative viability (NCI-H650; first compound 0.5 µM) was 1.07. It also gave a relative viability (NCI-H727; first compound 0.005 µM) of 1.12, a relative viability (NCI-H727; first compound 0.01581 µM) of 0.902 and a relative viability (NCI-H727; first compound 0.1581 µM) of 0.829. For the same compound, the relative viability (NCI-H727; first compound 0.5 µM) was 0.858, the relative viability (NCI-H838; first compound 0.005 µM) was 0.976 and the relative viability (NCI-H838; first compound 0.01581 µM) was 1.09. For the same compound, the relative viability (NCI-H838; first compound 0.05 µM) was 1.19, the relative viability (NCI-H838; first compound 0.1581 µM) was 1.01 and the relative viability (NCI-H838; first compound 0.5 µM) was 1.03. It also gave a relative viability (PC-14; first compound 0.005 µM) of 0.898, a relative viability (PC-14; first compound 0.01581 µM) of 0.981 and a relative viability (PC-14; first compound 0.05 µM) of 1.27. It also gave a relative viability (PC-14; first compound 0.1581 µM) of 0.941, a relative viability (PC-14; first compound 0.5 µM) of 0.838 and a relative viability (PC-3 [JPC-3]; first compound 0.005 µM) of 1.02. It also gave a relative viability (PC-3 [JPC-3]; first compound 0.01581 µM) of 1.03, a relative viability (PC-3 [JPC-3]; first compound 0.05 µM) of 1.12 and a relative viability (PC-3 [JPC-3]; first compound 0.1581 µM) of 1.02. It also gave a relative viability (PC-3 [JPC-3]; first compound 0.5 µM) of 1.06, a relative viability (SW 1573; first compound 0.005 µM) of 1.06 and a relative viability (SW 1573; first compound 0.01581 µM) of 1. The relative viability (SW 1573; first compound 0.05 µM) was 0.922, the relative viability (SW 1573; first compound 0.1581 µM) was 1.02 and the relative viability (SW 1573; first compound 0.5 µM) was 1.04. For the same compound, the relative viability (SW 900; first compound 0.005 µM) was 0.857, the relative viability (SW 900; first compound 0.01581 µM) was 1.04 and the relative viability (SW 900; first compound 0.05 µM) was 0.819. It also gave a relative viability (SW 900; first compound 0.1581 µM) of 0.643 and a relative viability (SW 900; first compound 0.5 µM) of 0.85.
